Experiments:
Type in all cases: functional
RPMI-8226 = assay: Growth inhibition of human RPMI-8226 cells assessed as cell growth at 1 uM incubated for 48 hrs by sulforhodamine B assay relative to control; conditions: read-out: Activity
OVCAR-3 [1] = assay: Growth inhibition of human OVCAR-3 cells incubated for 48 hrs by sulforhodamine B assay
SK-MEL-2 [2] = assay: Growth inhibition of human SK-MEL-2 cells assessed as cell growth at 100 uM incubated for 48 hrs by sulforhodamine B assay relative to control; conditions: read-out: Activity
SF-539 = assay: Growth inhibition of human SF-539 cells incubated for 48 hrs by sulforhodamine B assay
OVCAR-3 [3] = assay: Growth inhibition of human OVCAR-3 cells assessed as cell growth at 100 uM incubated for 48 hrs by sulforhodamine B assay relative to control; conditions: read-out: Activity
CCRF-CEM = assay: Growth inhibition of human CCRF-CEM cells assessed as cell growth at 100 uM incubated for 48 hrs by sulforhodamine B assay relative to control; conditions: read-out: Activity
OVCAR-3 [4] = assay: Growth inhibition of human OVCAR-3 cells assessed as cell growth at 0.01 uM incubated for 48 hrs by sulforhodamine B assay relative to control; conditions: read-out: Activity
HCC 2998 [5] = assay: Growth inhibition of human HCC 2998 cells assessed as cell growth at 0.1 uM incubated for 48 hrs by sulforhodamine B assay relative to control; conditions: read-out: Activity
UACC-257 = assay: Growth inhibition of human UACC-257 cells incubated for 48 hrs by sulforhodamine B assay
NCI-H460 = assay: Growth inhibition of human NCI-H460 cells assessed as cell growth at 0.1 uM incubated for 48 hrs by sulforhodamine B assay relative to control; conditions: read-out: Activity
NCI-H322M [6] = assay: Growth inhibition of human NCI-H322M cells assessed as cell growth at 1 uM incubated for 48 hrs by sulforhodamine B assay relative to control; conditions: read-out: Activity
NCI-H322M [7] = assay: Growth inhibition of human NCI-H322M cells incubated for 48 hrs by sulforhodamine B assay
SK-MEL-2 [8] = assay: Growth inhibition of human SK-MEL-2 cells incubated for 48 hrs by sulforhodamine B assay
TK-10 [9] = assay: Growth inhibition of human TK-10 cells assessed as cell growth at 0.01 uM incubated for 48 hrs by sulforhodamine B assay relative to control; conditions: read-out: Activity
EKVX = assay: Growth inhibition of human EKVX cells incubated for 48 hrs by sulforhodamine B assay
786-0 = assay: Growth inhibition of human 786-0 cells assessed as cell growth at 0.1 uM incubated for 48 hrs by sulforhodamine B assay relative to control; conditions: read-out: Activity
HT-29 = assay: Growth inhibition of human HT-29 cells assessed as cell growth at 0.01 uM incubated for 48 hrs by sulforhodamine B assay relative to control; conditions: read-out: Activity
Malme-3M = assay: Growth inhibition of human Malme-3M cells assessed as cell growth at 1 uM incubated for 48 hrs by sulforhodamine B assay relative to control; conditions: read-out: Activity
BT-549 = assay: Growth inhibition of human BT-549 cells incubated for 48 hrs by sulforhodamine B assay
SK-MEL-28 = assay: Growth inhibition of human SK-MEL-28 cells assessed as cell growth at 100 uM incubated for 48 hrs by sulforhodamine B assay relative to control; conditions: read-out: Activity
M14 = assay: Growth inhibition of human M14 cells assessed as cell growth at 1 uM incubated for 48 hrs by sulforhodamine B assay relative to control; conditions: read-out: Activity
MDA-MB-435 = assay: Growth inhibition of human MDA-MB-435 cells assessed as cell growth at 0.01 uM incubated for 48 hrs by sulforhodamine B assay relative to control; conditions: read-out: Activity
DU-145 = assay: Growth inhibition of human DU-145 cells assessed as cell growth at 0.1 uM incubated for 48 hrs by sulforhodamine B assay relative to control; conditions: read-out: Activity
UO-31 = assay: Growth inhibition of human UO-31 cells assessed as cell growth at 100 uM incubated for 48 hrs by sulforhodamine B assay relative to control; conditions: read-out: Activity
OVCAR-8 = assay: Growth inhibition of human OVCAR-8 cells assessed as cell growth at 100 uM incubated for 48 hrs by sulforhodamine B assay relative to control; conditions: read-out: Activity
TK-10 [10] = assay: Growth inhibition of human TK-10 cells incubated for 48 hrs by sulforhodamine B assay
CAKI-1 [11] = assay: Growth inhibition of human CAKI-1 cells assessed as cell growth at 1 uM incubated for 48 hrs by sulforhodamine B assay relative to control; conditions: read-out: Activity
SF-295 = assay: Growth inhibition of human SF-295 cells assessed as cell growth at 100 uM incubated for 48 hrs by sulforhodamine B assay relative to control; conditions: read-out: Activity
NCI/ADR-RES = assay: Growth inhibition of human NCI/ADR-RES cells incubated for 48 hrs by sulforhodamine B assay
HL-60(TB) = assay: Growth inhibition of human HL-60(TB) cells assessed as cell growth at 0.01 uM incubated for 48 hrs by sulforhodamine B assay relative to control; conditions: read-out: Activity
HCC 2998 [12] = assay: Growth inhibition of human HCC 2998 cells assessed as cell growth at 1 uM incubated for 48 hrs by sulforhodamine B assay relative to control; conditions: read-out: Activity
RXF 393 = assay: Growth inhibition of human RXF 393 cells assessed as cell growth at 100 uM incubated for 48 hrs by sulforhodamine B assay relative to control; conditions: read-out: Activity
CAKI-1 [13] = assay: Growth inhibition of human CAKI-1 cells assessed as cell growth at 0.01 uM incubated for 48 hrs by sulforhodamine B assay relative to control; conditions: read-out: Activity
[14] = read-out: LC50 (the source's name)
[15] = read-out: pLC50 (the source's name) (converted)

CC(=O)Nc1cc(CO[Si](C)(C)C(C)(C)C)cc(NC(=O)c2ccc(C(=O)Nc3cccc(NC(=O)CCCN(C)C)c3)cc2)c1
73%: growth at 1 µM (CAKI-1 [11])
98%: growth at 0.01 µM (MDA-MB-435)
105%: growth at 100 µM (OVCAR-3 [3])
110%: growth at 1 µM (RPMI-8226)
100%: growth at 0.01 µM (OVCAR-3 [4]) | growth at 0.1 µM (DU-145)
101%: growth at 1 µM (M14)
> 75.9 µM: GI50 (OVCAR-3 [1]; read-out: pGI50 (converted)) | LC50 (50% lethal concentration) (OVCAR-3 [1]; read-out: pLC50 (converted)) | TGI (OVCAR-3 [1]; read-out: pTGI) | GI50 (SF-539; read-out: pGI50 (converted)) | CC50 (SF-539; [15]) | TGI (SF-539; read-out: pTGI) | GI50 (UACC-257; read-out: pGI50 (converted)) | LC50 (UACC-257; read-out: pLC50 (converted)) | TGI (UACC-257; read-out: pTGI) | GI50 (NCI-H322M [7]; read-out: pGI50 (converted)) | CC50 (NCI-H322M [7]; [15]) | TGI (NCI-H322M [7]; read-out: pTGI) | GI50 (SK-MEL-2 [8]; read-out: pGI50 (converted)) | CC50 (SK-MEL-2 [8]; [15]) | TGI (SK-MEL-2 [8]; read-out: pTGI) | GI50 (EKVX; read-out: pGI50 (converted)) | LC50 (EKVX; read-out: pLC50 (converted)) | TGI (EKVX; read-out: pTGI) | GI50 (BT-549; read-out: pGI50 (converted)) | CC50 (BT-549; [15]) | TGI (BT-549; read-out: pTGI) | GI50 (TK-10 [10]; read-out: pGI50 (converted)) | CC50 (TK-10 [10]; [15]) | TGI (TK-10 [10]; read-out: pTGI) | GI50 (NCI/ADR-RES; read-out: pGI50 (converted)) | CC50 (NCI/ADR-RES; [15]) | TGI (NCI/ADR-RES; read-out: pTGI)
> 75 µM: GI50 (OVCAR-3 [1]; read-out: GI50) | LC50 (50% lethal concentration) (OVCAR-3 [1]; read-out: LC50) | TGI (OVCAR-3 [1]; read-out: TGI) | GI50 (SF-539; read-out: GI50) | CC50 (SF-539; [14]) | TGI (SF-539; read-out: TGI) | GI50 (UACC-257; read-out: GI50) | LC50 (UACC-257; read-out: LC50) | TGI (UACC-257; read-out: TGI) | GI50 (NCI-H322M [7]; read-out: GI50) | CC50 (NCI-H322M [7]; [14]) | TGI (NCI-H322M [7]; read-out: TGI) | GI50 (SK-MEL-2 [8]; read-out: GI50) | CC50 (SK-MEL-2 [8]; [14]) | TGI (SK-MEL-2 [8]; read-out: TGI) | GI50 (EKVX; read-out: GI50) | LC50 (EKVX; read-out: LC50) | TGI (EKVX; read-out: TGI) | GI50 (BT-549; read-out: GI50) | CC50 (BT-549; [14]) | TGI (BT-549; read-out: TGI) | GI50 (TK-10 [10]; read-out: GI50) | CC50 (TK-10 [10]; [14]) | TGI (TK-10 [10]; read-out: TGI) | GI50 (NCI/ADR-RES; read-out: GI50) | CC50 (NCI/ADR-RES; [14]) | TGI (NCI/ADR-RES; read-out: TGI)
96%: growth at 0.01 µM (TK-10 [9])
89%: growth at 100 µM (UO-31)
88%: growth at 100 µM (OVCAR-8) | growth at 100 µM (SF-295)
102%: growth at 0.01 µM (HT-29) | growth at 0.01 µM (HL-60(TB))
87%: growth at 100 µM (SK-MEL-2 [2])
74%: growth at 100 µM (SK-MEL-28)
93%: growth at 0.1 µM (786-0)
94%: growth at 1 µM (Malme-3M) | growth at 1 µM (HCC 2998 [12])
83%: growth at 100 µM (RXF 393)
92%: growth at 0.01 µM (CAKI-1 [13])
99%: growth at 0.1 µM (NCI-H460)
112%: growth at 100 µM (CCRF-CEM)
97%: growth at 0.1 µM (HCC 2998 [5]) | growth at 1 µM (NCI-H322M [6])
